Measured values as given in patent US8937078B2, “Quinazolinones as prolyl hydroxylase inhibitors” (Janssen Pharmaceutica NV, priority 2009, dated 2015).

Assays:
human PHD2 (PHD2181-417) = target: T1, human PHD2 (PHD2181-417) (Homo sapiens, UniProt Q9GZT9); assay: PHD enzymatic assay ([14C]-succinic acid production); type: biochemical; details: PHD2181-417, HIF-1α peptide 10 μM, average of results; read-out: Enzyme pIC50 (converted)
T1 construct: Smt (SUMO) tag (cleaved yes); made in house; host or cells: E. coli BL21 (pBAD vector)
Outline: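 Activity measured as [14C]-succinic acid formed from [5-14C]-2-oxoglutarate over 10 minutes, with peptide substrate at 10 μM, in Tris-HCl pH 7.5 buffer containing catalase, DTT and ascorbate. Unreacted oxoglutarate removed by DNP derivatisation; supernatant beta-counted.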

Hep-3B cells = assay: Cellular assay: erythropoietin secretion in Hep-3B cells; type: cell-based, human; details: Homo sapiens, Hep3B, 100 μM compound, 24 hours, percent of EPO secretion relative to assay control compound 7-[(4-Chloro-phenyl)-(5-methyl-isoxazol-3-ylamino)-methyl]-quinolin-8-ol, read-out: Cellular % EPO Stimulation
Outline: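 Hep-3B cells in DMEM with 10% FBS, treated 24 h after plating with compounds at 100 μM final for a further 24 h. Secreted EPO in supernatant measured by MSD electrochemiluminescence sandwich immunoassay with anti-EPO detection antibody.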

T1 sequence (Q9GZT9 181-417): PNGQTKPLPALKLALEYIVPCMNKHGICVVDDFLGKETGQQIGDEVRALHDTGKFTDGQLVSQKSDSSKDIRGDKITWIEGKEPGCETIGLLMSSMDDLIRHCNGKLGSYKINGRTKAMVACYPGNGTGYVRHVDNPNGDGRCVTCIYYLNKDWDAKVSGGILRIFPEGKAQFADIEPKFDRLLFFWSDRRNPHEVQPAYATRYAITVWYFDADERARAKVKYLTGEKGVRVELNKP

| SMILES | IC50 (human PHD2 (PHD2181-417)) [nM] | Emax at 100 µM (Hep-3B cells) [%] |
| --- | --- | --- |
| COc1cccc2c(=O)[nH]c(-n3cc(C(=O)O)cn3)nc12 [Example 7, 1-(8-Methoxy-4-oxo-3,4-dihydro-quinazolin-2-yl)-1H-pyrazole-4-carboxylic acid] | 158 | 25 |
| O=C(O)c1cnn(-c2nc3cc(F)c(Oc4ccccc4)c(F)c3c(=O)[nH]2)c1 [Example 64, 1-(5,7-Difluoro-4-oxo-6-phenoxy-3,4-dihydro-quinazolin-2-yl)-1H-pyrazole-4-carboxylic acid] | 25.1 | 22 |
| Cc1cc2nc(-n3cc(C(=O)O)cn3)[nH]c(=O)c2cc1Oc1ccccc1 [Example 59, 1-(7-Methyl-4-oxo-6-phenoxy-3,4-dihydro-quinazolin-2-yl)-1H-pyrazole-4-carboxylic acid] | 25.1 | 80 |
| O=C(O)c1cnn(-c2nc3cc(S(=O)(=O)c4ccccc4)ccc3c(=O)[nH]2)c1 [Example 81, 1-(7-Benzenesulfonyl-4-oxo-3,4-dihydro-quinazolin-2-yl)-1H-pyrazole-4-carboxylic acid] | 79.4 | 26 |
| O=C(O)c1cnn(-c2nc3cc(F)c(Oc4cccc(F)c4)cc3c(=O)[nH]2)c1 [Example 56, 1-[7-Fluoro-6-(3-fluoro-phenoxy)-4-oxo-3,4-dihydro-quinazolin-2-yl]-1H-pyrazole-4-carboxylic acid] | 20 | 68 |
| O=C(O)c1cnn(-c2nc(=O)c3cc(Sc4ccccc4)c(Cl)cc3[nH]2)c1 [Example 25, 1-(7-Chloro-4-oxo-6-phenylsulfanyl-1,4-dihydro-quinazolin-2-yl)-1H-pyrazole-4-carboxylic acid] | 39.8 | 68 |
| Cc1ccc2nc(-n3cc(C(=O)O)cn3)[nH]c(=O)c2c1 [Example 8, 1-(6-Methyl-4-oxo-3,4-dihydro-quinazolin-2-yl)-1H-pyrazole-4-carboxylic acid] | 39.8 | 14 |
| COc1cccc(C2CCCN(c3cc4c(=O)[nH]c(-n5cc(C(=O)O)cn5)nc4cc3Cl)C2)c1 (racemic) [Example 86, (rac)-1-{7-Chloro-6-[3-(3-methoxy-phenyl)-piperidin-1-yl]-4-oxo-3,4-dihydro-quinazolin-2-yl}-1H-pyrazole-4-carboxylic acid] | 25.1 | 71 |
| Cc1cc2nc(-n3cc(C(=O)O)cn3)[nH]c(=O)c2cc1Oc1cccc(C(F)(F)F)c1 [Example 93, 1-[7-methyl-4-oxo-6-(3-trifluoromethyl-phenoxy)-3,4-dihydro-quinazolin-2-yl]-1H-pyrazole-4-carboxylic acid] | 20 | 153 |
| CN1CCN(c2ccc3nc(-n4cc(C(=O)O)cn4)[nH]c(=O)c3c2)CC1 [Example 103, 1-[6-(4-methyl-piperazin-1-yl)-4-oxo-3,4-dihydro-quinazolin-2-yl]-1H-pyrazole-4-carboxylic acid] | 63.1 | 30 |
| O=C(O)c1cnn(-c2nc3cc(F)c(Oc4cc(Cl)ccc4Cl)cc3c(=O)[nH]2)c1 [Example 87, 1-[6-(2,5-dichloro-phenoxy)-7-fluoro-4-oxo-3,4-dihydro-quinazolin-2-yl]-1H-pyrazole-4-carboxylic acid] | 20 | 84 |
| O=C(O)c1cnn(-c2nc3ccc(Oc4ccccc4F)cc3c(=O)[nH]2)c1 [Example 33, 1-[6-(2-Fluoro-phenoxy)-4-oxo-3,4-dihydro-quinazolin-2-yl]-1H-pyrazole-4-carboxylic acid] | 31.6 | 56 |
| COc1cc2nc(-n3cc(C(=O)O)cn3)[nH]c(=O)c2cc1OC [Example 17, 1-(6,7-Dimethoxy-4-oxo-3,4-dihydro-quinazolin-2-yl)-1H-pyrazole-4-carboxylic acid] | 200 | 33 |
| O=C(O)c1cnn(-c2nc3cc(Cl)c(Cl)cc3c(=O)[nH]2)c1 [Example 3, 1-(6,7-Dichloro-4-oxo-3,4-dihydro-quinazolin-2-yl)-1H-pyrazole-4-carboxylic acid] | 25.1 | 37 |
| C=C(Cl)c1ccc2nc(-n3cc(C(=O)O)cn3)[nH]c(=O)c2c1 [Example 77, 1-[6-(1-Chloro-vinyl)-4-oxo-3,4-dihydro-quinazolin-2-yl]-1H-pyrazole-4-carboxylic acid] | 25.1 | 27 |
| Cc1cc(C)cc(Oc2ccc3nc(-n4cc(C(=O)O)cn4)[nH]c(=O)c3c2)c1 [Example 98, 1-[6-(3,5-dimethyl-phenoxy)-4-oxo-3,4-dihydro-quinazolin-2-yl]-1H-pyrazole-4-carboxylic acid] | 20 | 85 |
| O=C(O)c1cnn(-c2nc3cc(Cl)c(-c4ccccc4)cc3c(=O)[nH]2)c1 [Example 68, 1-(7-Chloro-4-oxo-6-phenyl-3,4-dihydro-quinazolin-2-yl)-1H-pyrazole-4-carboxylic acid] | 20 | 59 |
| O=C(O)c1cnn(-c2nc3ccc(C4CCCCC4)cc3c(=O)[nH]2)c1 [Example 21, 1-(6-Cyclohexyl-4-oxo-3,4-dihydro-quinazolin-2-yl)-1H-pyrazole-4-carboxylic acid] | 25.1 | 84 |

Further lines, with some results ahead:

| IC50 (human PHD2 (PHD2181-417)) [nM] | SMILES | Emax at 100 µM (Hep-3B cells) [%] |
| --- | --- | --- |
| 31.6 | O=C(O)c1cnn(-c2nc3ccc(Cc4ccccc4)cc3c(=O)[nH]2)c1 [Example 105, 1-(6-benzyl-4-oxo-3,4-dihydro-quinazolin-2-yl)-1H-pyrazole-4-carboxylic acid] | 129 |
| 31.6 | O=C(O)c1cnn(-c2nc3ccc(-c4cccc(Cl)c4)cc3c(=O)[nH]2)c1 [Example 193, 1-[6-(3-Chloro-phenyl)-4-oxo-3,4-dihydro-quinazolin-2-yl]-1H-pyrazole-4-carboxylic acid] | 141 |
| 25.1 | CS(=O)(=O)c1cccc(-c2ccc3nc(-n4cc(C(=O)O)cn4)[nH]c(=O)c3c2)c1 [Example 206, 1-[6-(3-Methanesulfonyl-phenyl)-4-oxo-3,4-dihydro-quinazolin-2-yl]-1H-pyrazole-4-carboxylic acid] | 13 |
| 39.8 | O=C(O)c1cnn(-c2nc3ccc(S(=O)(=O)N4CCCC4)cc3c(=O)[nH]2)c1 [Example 161, 1-[4-Oxo-6-(pyrrolidine-1-sulfonyl)-3,4-dihydro-quinazolin-2-yl]-1H-pyrazole-4-carboxylic acid] | 17 |
| 398 | Cc1cc(C)c2c(=O)[nH]c(-n3cc(C(=O)O)cn3)nc2c1 [Example 145, 1-(5,7-Dimethyl-4-oxo-3,4-dihydro-quinazolin-2-yl)-1H-pyrazole-4-carboxylic acid] | 16 |
| 20 | O=C(O)c1cnn(-c2nc3ccc(-c4ccc(Cl)cc4)cc3c(=O)[nH]2)c1 [Example 194, 1-[6-(4-Chloro-phenyl)-4-oxo-3,4-dihydro-quinazolin-2-yl]-1H-pyrazole-4-carboxylic acid] | 62 |
| 25.1 | COc1cccc(-c2ccc3nc(-n4cc(C(=O)O)cn4)[nH]c(=O)c3c2)c1 [Example 199, 1-[6-(3-Methoxy-phenyl)-4-oxo-3,4-dihydro-quinazolin-2-yl]-1H-pyrazole-4-carboxylic acid] | 119 |
| 15.8 | COc1ccc(-c2ccc3nc(-n4cc(C(=O)O)cn4)[nH]c(=O)c3c2)cc1 [Example 200, 1-[6-(4-Methoxy-phenyl)-4-oxo-3,4-dihydro-quinazolin-2-yl]-1H-pyrazole-4-carboxylic acid] | 118 |
| 251 | CC(C)c1cccc2c(=O)[nH]c(-n3cc(C(=O)O)cn3)nc12 [Example 114, 1-(8-Isopropyl-4-oxo-3,4-dihydro-quinazolin-2-yl)-1H-pyrazole-4-carboxylic acid] | 16 |
| 251 | O=C(O)c1cnn(-c2nc3c4c(ccc3c(=O)[nH]2)CCCC4)c1 [Example 142, 1-(4-Oxo-3,4,7,8,9,10-hexahydro-benzo[h]quinazolin-2-yl)-1H-pyrazole-4-carboxylic acid] | 23 |
| 20 | COc1ccccc1-c1ccc2nc(-n3cc(C(=O)O)cn3)[nH]c(=O)c2c1 [Example 198, 1-[6-(2-Methoxy-phenyl)-4-oxo-3,4-dihydro-quinazolin-2-yl]-1H-pyrazole-4-carboxylic acid] | 178 |
| 25.1 | CCNc1ccc2nc(-n3cc(C(=O)O)cn3)[nH]c(=O)c2c1 [Example 172, 1-(6-Ethylamino-4-oxo-3,4-dihydro-quinazolin-2-yl)-1H-pyrazole-4-carboxylic acid] | 20 |
| 39.8 | CCc1ccc2nc(-n3cc(C(=O)O)cn3)[nH]c(=O)c2c1 [Example 128, 1-(6-Ethyl-4-oxo-3,4-dihydro-quinazolin-2-yl)-1H-pyrazole-4-carboxylic acid] | 53 |
| 25.1 | O=C(O)c1cnn(-c2nc3ccc(NCc4ccccc4)cc3c(=O)[nH]2)c1 [Example 171, 1-(6-Benzylamino-4-oxo-3,4-dihydro-quinazolin-2-yl)-1H-pyrazole-4-carboxylic acid] | 34 |
| 63.1 | Nc1ccc2nc(-n3cc(C(=O)O)cn3)[nH]c(=O)c2c1 [Example 180, 1-[6-amino-4-oxo-3,4-dihydro-quinazolin-2-yl]-1H-pyrazole-4-carboxylic acid] | 8 |
